Measured values taken from patent US20240041828A1, “Combination Therapeutics Comprising Nrf2 Agonists and Antivirals for Treating Viral Infections” (The Regents of the University of California, priority 2022, published 2024).
Entries after “also recorded” stand apart in the source; their conditions may differ. Counter-ions that a name gives are not always drawn. Like-named read-outs stand apart in the source and are kept apart here.

Key:
Assay type in all cases: cell-based
[1] = tested on: B.1.617.2 (Delta) SARS-CoV-2 variant; experiment: microbe, parasite or virus in culture; conditions: for IC50: Severe acute respiratory syndrome coronavirus 2, A549
[2] = tested on: SARS-coV-2 Omicron variant
[3] = tested on: B.1.617.2 (Delta) SARS-CoV-2 variant

COC(=O)/C=C/C(=O)OC [DMF, Dimethyl fumarate]
IC50 compared to comparator drug [1]: higher IC50 compared to Paxlovid™; also recorded: higher IC50 compared to molnupiravir | anti-SARS-CoV-2 activity (words, figure legend) [1]: anti-SARS-CoV-2 activity in single layer human airway cells that is lower than Paxlovid™; also recorded: strong anti-SARS-CoV-2 activity in single layer human airway cells that is higher than molnupiravir | IC50 [1]: 16.7 µM | IC50 compared to comparator drug [2]: IC50 that was similar to Paxlovid™; also recorded: higher than molnupiravir IC50 | anti-SARS-CoV-2 activity (words, figure legend) [2]: stronger anti-SARS-CoV-2 activity in multilayer human airway cell culture than molnupiravir | drug interaction (words, figure legend) [3]: additive anti-SARS-CoV-2 activity with Paxlovid™; also recorded: additive anti-SARS-CoV-2 activity with molnupiravir

COC1=C(OC)C(=O)C(CCCCCCCCCC[P+](c2ccccc2)(c2ccccc2)c2ccccc2)=C(C)C1=O.CS(=O)(=O)[O-] [Mito-MES, 10-(4,5-dimethoxy-2-methyl-3,6-dioxo-1,4-cyclohexadienyl) decyl triphenylphosphonium methanesulfonate]
IC50 [1]: 0.144 µM | IC50 compared to comparator drug ([1]; methanesulfonate): higher IC50 compared to molnupiravir | anti-SARS-CoV-2 activity (words, figure legend) ([1]; methanesulfonate): strong anti-SARS-CoV-2 activity in single layer human airway cells that is similar to Paxlovid™; also recorded: strong anti-SARS-CoV-2 activity in single layer human airway cells that is higher than molnupiravir | IC50 compared to comparator drug [2]: higher than Paxlovid™ IC50 | better antiviral effect in ALI HAE system compared to Paxlovid ([2]; ALI HAE system): about 1000 fold | anti-SARS-CoV-2 activity (words, figure legend) ([2]; methanesulfonate): stronger anti-SARS-CoV-2 activity in multilayer human airway cell culture than Paxlovid™; also recorded: stronger anti-SARS-CoV-2 activity in multilayer human airway cell culture than molnupiravir | drug interaction (words, figure legend) ([3]; methanesulfonate): additive anti-SARS-CoV-2 activity with Paxlovid™; also recorded: additive anti-SARS-CoV-2 activity with molnupiravir

CC(C)C(=O)OC[C@H]1O[C@@H](n2ccc(NO)nc2=O)[C@H](O)[C@@H]1O [molnupiravir, Molnupiravir]
IC50 [1]: 31 µM
